Experimental data from patent publication US12076331B2, “Inositol derivatives for use in pathological crystallization” (ETH Zurich, priority 2015, dated 2024).
Entries after “also recorded” stand apart in the source; their conditions may differ.

What was measured:
[1] = tested on: transition of primary CPPs to secondary CPPs; assay: calciprotein particle (CPP) maturation time in human serum (Pasch test, FIG. 1); conditions: human pooled serum, 37° C., nephelometer up to 600 minutes
Description: The y-axis indicates the half-maximal transition time (T50) in minutes of primary CPPs to secondary CPPs. IP6: myo-inositol hexakisphosphate (Biosynth); IS6: myo-inositol hexakissulfate (Sigma); IP2S4: 4,6-di-(O-phosphate)-myo-inositol 1,2,3,5-tetra-O-sulfate; IT2S4: 4,6-di-(O-thiophosphate)-myo-inositol 1,2,3,5-tetra-O-sulfate; IP5-PEG: 2-PEG(2000)-myo-inositol pentakisphosphate.
(§1) The inventors performed an in vitro assay that measures the propensity for calcification of human serum and has been clinically validated as a predictor of all-cause mortality in CKD patients and renal transplant recipients (as described in Pasch, Journal of the American
Society of Nephrology 23, 1744-1752, 2012). The experiment was carried out by mixing a calcium solution, human pooled serum, the test compound at the final concentration indicated and a phosphate solution, and the transition time of primary to secondary CPPs was measured at 37° C. using a nephelometer for up to 600 minutes.

[2] = tested on: transition of primary CPPs to secondary CPPs; assay: CPP maturation time in human serum, similar test with test compounds added last (FIG. 2); conditions: test compounds added to the reaction mixture last
Procedure: as §1
Society of Nephrology 23, 1744-1752, 2012). […], and the transition time of primary to secondary CPPs was measured at 37° C. using a nephelometer for up to 600 minutes.

[3] = In-solution screening of CaP precipitation and aggregation in artificial renal tubular fluid (RTF); format: physicochemical; conditions: 9 mM phosphate, 8 mM calcium, 4 h
Procedure: (§2) Effects of (A) OEG2-IP5, (B) OEG11-IP5, (C) (OEG2)2-IP4, (D) (OEG11)2-IP4 and (E) OEG8-(IP5)2. on CaP precipitation in RTF spiked with 9 mM disodium phosphate and 8 mM calcium chloride were assessed by light microscopy followed by automated image analysis at t=4 h. Quantification of the total area covered with CaP precipitates/total area field of view (N=3, mean+SD, normalized to the control).
as §2, with “mean size of aggregates/field” for “total area covered with CaP precipitates/total area field”, “view normalized to the ctrl” for “view”
Overview table showing the minimal concentration of compound (FIG. 3 for the chemical structures) required to achieve complete inhibition of CaP precipitation (total area covered with crystals <10% of total area control); and minimal concentration required to prevent CaP crystal aggregation in the CaP screening assay (CaP aggregate size <50% of aggregate size control) (N=3).
An artificial renal tubular fluid (RTF) with a final composition of 0.05 mM oxalate, 0.005 mM sulphate, 408 mM sodium, 424 mM chloride, 0.26 mM potassium, 4 mM magnesium and 0.2 mM citrate in double distilled water was prepared according to a literature report (Fasano, J. M. et al., Kidney Int. 59, 169-178. DOI: 10.1046/j. 1523-1755.2001.00477.x, 2001). The solution was filtered with a 0.45-μm syringe filter. Twenty mM Bis-Tris buffer was added to the reported protocol to ensure pH stability throughout experiments and pH was set to 7.2. The artificial RTF was stored at room temperature for up to four months. Stock solutions of 0.25 M phosphate and 1 M calcium were prepared in double distilled water and were stored separately at −20° C.
Twenty-x final concentration phosphate, 20× final concentration calcium and 10× final concentration compound dilutions were prepared in RTF. Assay mixture consisting of 80% RTF, 10% compound dilution, 5% phosphate dilution and 5% calcium dilution was prepared in Eppendorf tubes as follows. RTF (320 μL) was mixed with 20 μL phosphate dilution (final concentration of 9 mM), 40 μL compound dilution and 20 μL calcium dilution (final concentration of 8 mM). The assay mixture was vortexed after adding each component and 380 μL of the mixture were immediately added to 8-well glass bottom slides and incubated for 4 hat RT. CaP precipitation was assessed using a Leica DM 6000B microscope (Leica Microsystems, Wetzlar, Germany) in brightfield mode. For quantification 3 wells/condition with 3-4 images/well were imaged with a 40× objective. The total area covered with CaP deposits in percentage of the field of view and the mean size of CaP aggregates were determined.
In a first step, the influence of selected IP6 analogues (FIG. 5) on CaP precipitation and growth was assessed in vitro using artificial renal tubular fluid (RTF) (Table 1). In a previous study, the inventors investigated CaP protein particle formation in serum. However, an important difference to cardiovascular calcification lies in the extremely low protein content of the renal tubular fluid vs. the high abundance of proteins in blood, which can stabilize amorphous particles. Two cut-offs were chosen for assessing efficacy. First, complete inhibition was defined as a >90% reduction of detected CaP precipitates compared to the control sample without compound. Second, inhibition of CaP aggregation was defined as a >50% reduction of the mean size of aggregates when compared to the control.

[4] = tested on: RPTEC/TERT 1 human proximal tubule cells; assay: Imaging assay of CaP adhesion/deposition and cellular changes on RPTEC monolayers; format: cell-based; conditions: RPTEC, 7 mM phosphate, 5 mM calcium, 24 h
Description: (A) Heatmap and hierarchical clustering of extracted image features. (B) Selected single features describing cellular changes upon increasing (OEG2)2-IP4 concentrations are depicted. Total cell count, dead cell count, single cell area and single cell solidity, a measure of cell compactness, are shown. (C) Selected single features describing changes in the CaP deposition and membrane pattern upon increasing (OEG2)2-IP4 concentrations are depicted. The total area of the binary calcein staining, colorimetric quantification of calcium content extracted from the monolayer, the maximum intensity of the calcein fluorescence, structural similarity index metric (SSIM) and the correlation of the CellMask channel image are shown. (D) Example brightfield, calcein, CellMask and EthD channel images and two zoomed-in regions of interests (ROI) of RPTEC treated with 13 μM (OEG2)2-IP4 are shown. Mean scaled values per individual experiment are plotted (N=3). Pos.ctrl presents treatment with 5/7 mM Ca/P, neg.ctrl presents medium without Ca/P spiking (=1/1 mM Ca/P present in normal cell medium). Mean of three individual experiments and SD is plotted as grey horizontal and vertical line respectively, one-way ANOVA with Dunnet's multiple comparison between each concentration to pos. ctrl was performed (* p<0.01).
RPTEC/TERT 1 monolayers at confluence were treated with medium spiked with 7 mM disodium phosphate, 5 mM calcium chloride and compound and were incubated for 24 h. The amount of CaP deposits and the extent of cell injury were detected by calcein and EthD staining, respectively. Fluorescence images were quantified using Matlab. Quantification of the area covered with CaP deposition on RPTEC monolayers with (A) OEG2-IP5, (B) OEG11-IP5, (C) (OEG2)2-IP4, and (D) OEG8-(IP5)2 treatment. (N=3, mean+SD, one-way ANOVA with Dunnett's multiple comparison, * p<0.05, ** p<0.01, *** p<0.001).
RPTEC/TERT 1 human proximal tubule cells (RPTEC) were cultured in T75 tissue culture flasks using ProxUp basal medium mixed with ProxUp supplements at 37° C. and 5% CO2 according to manufacturer's recommendations. Cells were used up to passage 30 and regularly tested for Mycoplasma infections. For experiments, RPTEC were cultured in 24-well plates at a seeding density of 150′000 cells/cm^2. Cell viability assessment and cell counting before seeding was performed using an automated cell counter (BioRad TC 20, Hercules, CA, USA).
For the comparison of selected IP6 analogues, ProxUp basal medium was prepared with the selected inhibitor and added to each well. Then, CaP precipitation was induced by direct addition of first, phosphate and second, calcium. Final concentrations of 7 mM phosphate and 5 mM calcium were used. Cells were incubated for 24 h at 37° C. and 5% CO2. Spiked medium was removed, and cells were washed twice with PBS before staining.
For staining, ProxUp basal medium was mixed with calcein (500 nM final concentration), EthD (6 μM final concentration), CellMask stain ([…]) and Hoechst 33342. Staining mixture was added to RPTEC and cells were incubated for 30 min in the dark at 37° C. and 5% CO2. Staining solution was removed, cells were washed with PBS once and ProxUp basal medium was added. Cells were immediately imaged after staining. Images were obtained by epifluorescence microscopy at 37° C., using a Leica CTR6000 microscope. For quantification 3 wells/condition were prepared and 3 images/well were taken. For preliminary adhesion experiments images were taken with a 10× objective, for the imaging assay 20× objective images were taken.
Multichannel images were saved as individual channel images in 8-bit tiff format. For analysis Hoechst channel images were thresholded using the triangle threshold. Touching nuclei of the binary image were further segmented using the watershed algorithm with the distance transform of the binary image as input and local maxima thereof as seeds. […]

2-PEG(2000)-myo-inositol pentakisphosphate [Compound 2-PEG-IP5]
activity on half-maximal transition time (T50) of primary CPPs to secondary CPPs [1]: far more active than any other compound

COCCOCCO[C@@H]1C(OP(=O)(O)O)[C@H](OCCOCCOC)[C@@H](OP(=O)(O)O)C(OP(=O)(O)O)[C@H]1OP(=O)(O)O (stereo partly shown) [INS-3001]
activity on transition time of primary to secondary CPPs [2]: more active than IP6; also recorded: more active than the compounds having one PEG moiety

O=P(O)(O)OC1C(OS(=O)(=O)O)C(OP(=O)(O)O)C(OS(=O)(=O)O)C(OS(=O)(=O)O)C1OS(=O)(=O)O (stereo not shown) [IP2S4, 4,6-di-(O-phosphate)-myo-inositol 1,2,3,5-tetra-O-sulfate]
activity on half-maximal transition time (T50) of primary CPPs to secondary CPPs [1]: more active than IP6

O=P(O)(O)OC1[C@@H](OP(=O)(O)O)[C@H](OP(=O)(O)O)C(O)[C@H](OP(=O)(O)O)[C@H]1OP(=O)(O)O (stereo partly shown) [IP5, myo-inositol pentakisphosphate, reference compound]
concentration at which CaP precipitation was promoted [3]: 30 µM

O=P(O)(O)O[C@H]1[C@H](OP(=O)(O)O)[C@@H](OP(=O)(O)O)[C@H](OP(=O)(O)O)[C@@H](OP(=O)(O)O)[C@H]1OP(=O)(O)O [IP6, myo-inositol hexakisphosphate, reference compound]
concentration at which CaP precipitation was promoted [3]: 10 µM

O=S(=O)(O)OC1C(OS(=O)(=O)O)C(OS(=O)(=O)O)C(OS(=O)(=O)O)C(OS(=O)(=O)O)C1OS(=O)(=O)O (stereo not shown) [IS6, myo-inositol hexakissulfate, reference compound]
effect on CaP precipitation/crystallization in words [3]: weak inhibitory properties

O=S(=O)(O)O[C@@H]1[C@@H](OP(O)(O)=S)[C@H](OS(=O)(=O)O)[C@H](OS(=O)(=O)O)[C@H](OS(=O)(=O)O)[C@H]1OP(O)(O)=S [IT2S4, 4,6-di-(O-thiophosphate)-myo-inositol 1,2,3,5-tetra-O-sulfate]
activity on half-maximal transition time (T50) of primary CPPs to secondary CPPs [1]: more active than IP6

COCCOCCO[C@@H]1[C@@H](OP(=O)(O)O)[C@H](OP(=O)(O)O)[C@@H](OP(=O)(O)O)[C@@H](OP(=O)(O)O)[C@H]1OP(=O)(O)O [OEG2-IP5]
concentration for complete inhibition of CaP precipitation (>90% reduction of CaP precipitates vs control) [3]: 30 µM
concentration for inhibition of CaP aggregation (>50% reduction of mean size of aggregates vs control) [3]: 1 µM
concentration achieving complete inhibition of CaP adhesion [4]: 50 µM

COCCOCCOCCOCCOCCOCCOCCOCCOCCOCCOCCO[C@@H]1[C@@H](OP(=O)(O)O)[C@H](OP(=O)(O)O)[C@@H](OP(=O)(O)O)[C@@H](OP(=O)(O)O)[C@H]1OP(=O)(O)O [OEG11-IP5]
aggregation inhibitory concentration [3]: 300 nM
concentration achieving complete inhibition of CaP adhesion [4]: 50 µM

cyclohexane hexacarboxylic acid [IC6, reference compound]
effect on CaP precipitation/crystallization in words [3]: weak inhibitory properties
